Article PMC9431551, “Isolation of the Thermostable β-Glucosidase-Secreting Strain Bacillus altitudinis JYY-02 and Its Application in the Production of Gardenia Blue” (Microbiology Spectrum, 2022)

Tested on: T1, recombinant β-glucosidase of B. altitudinis JYY-02 (bgl)
T1 construct: full-length ORF 1,467 bp, 488 residues, N-terminus MTTIKG from forward primer; E. coli BL21(DE3); 54 kDa
Experiment: p-nitrophenol release at […] nm, Lineweaver-Burk plot
Assay type: biochemical, Bacillus altitudinis
Settings: citrate-disodium hydrogen phosphate buffer 0.2 M, pH 5.6, 55°C (standard assay); abstract prints 0.331 mM

O=[N+]([O-])c1ccc(O[C@@H]2O[C@H](CO)[C@@H](O)[C@H](O)[C@H]2O)cc1 [p-nitrophenyl-β-D-glucopyranoside]
Km: 332 µM
